Measurements: PubChem BioAssay (NCI)
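Briefly, cells in 96-well plates were exposed to five compound concentrations for 48 h, and endpoints were estimated by linear interpolation. GI50 is the concentration that inhibits growth by half. TGI: concentration producing complete growth inhibition.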

How the values were obtained:
Test in all cases: DTP human tumour cell line panel, 48 h
OVCAR-5 ovarian = system: OVCAR-5 ovarian
EKVX NSCLC = system: EKVX NSCLC
HT29 colon = system: HT29 colon
NCI-H23 lung = system: NCI-H23 lung
SN12C renal = system: SN12C renal
LOX IMVI melanoma = system: LOX IMVI melanoma
MCF7 breast = system: MCF7 breast
HCT-116 colon = system: HCT-116 colon
CCRF-CEM leukemia = system: CCRF-CEM leukemia
IGROV1 ovarian = system: IGROV1 ovarian
MDA-MB-435 = system: MDA-MB-435
SK-MEL-2 melanoma = system: SK-MEL-2 melanoma
NCI/ADR-RES ovarian = system: NCI/ADR-RES ovarian
SK-OV-3 ovarian = system: SK-OV-3 ovarian
HCT-15 colon = system: HCT-15 colon
MDA-MB-231 breast = system: MDA-MB-231 breast
CAKI-1 renal = system: CAKI-1 renal
MDA-MB-468 breast = system: MDA-MB-468 breast
DU-145 prostate = system: DU-145 prostate
OVCAR-8 ovarian = system: OVCAR-8 ovarian
UACC-257 melanoma = system: UACC-257 melanoma
T-47D breast = system: T-47D breast
786-0 renal = system: 786-0 renal
TK-10 renal = system: TK-10 renal
HOP-92 NSCLC = system: HOP-92 NSCLC
RXF 393 renal = system: RXF 393 renal
RPMI-8226 leukemia = system: RPMI-8226 leukemia
SK-MEL-5 melanoma = system: SK-MEL-5 melanoma
SF-539 CNS = system: SF-539 CNS
HCC-2998 colon = system: HCC-2998 colon
NCI-H460 lung = system: NCI-H460 lung
SW-620 colon = system: SW-620 colon
UACC-62 melanoma = system: UACC-62 melanoma
HOP-62 NSCLC = system: HOP-62 NSCLC
PC-3 prostate = system: PC-3 prostate
A549 NSCLC = system: A549 NSCLC
SR leukemia = system: SR leukemia
SNB-19 CNS = system: SNB-19 CNS
OVCAR-4 ovarian = system: OVCAR-4 ovarian
SNB-75 CNS = system: SNB-75 CNS
A498 renal = system: A498 renal
NCI-H522 lung = system: NCI-H522 lung
SF-295 CNS = system: SF-295 CNS
MOLT-4 leukemia = system: MOLT-4 leukemia
HS 578T breast = system: HS 578T breast
UO-31 renal = system: UO-31 renal
SF-268 CNS = system: SF-268 CNS
M14 melanoma = system: M14 melanoma
OVCAR-3 ovarian = system: OVCAR-3 ovarian
SK-MEL-28 melanoma = system: SK-MEL-28 melanoma
MALME-3M melanoma = system: MALME-3M melanoma
NCI-H226 lung = system: NCI-H226 lung
COLO 205 colon = system: COLO 205 colon
BT-549 breast = system: BT-549 breast
U251 CNS = system: U251 CNS
ACHN renal = system: ACHN renal
KM12 colon = system: KM12 colon

Compound: Cn1cc(-c2cc(N)n3nc(-c4c[nH]c5ccccc45)cc3n2)c2cc(F)ccc21
- GI50 (OVCAR-5 ovarian): 1.97 µM
- TGI (OVCAR-5 ovarian): 4.27 µM
- GI50 (EKVX NSCLC): 1.99 µM
- TGI (EKVX NSCLC): 4.86 µM
- GI50 (HT29 colon): 1.89 µM
- TGI (HT29 colon): 3.96 µM
- GI50 (NCI-H23 lung): 1.91 µM
- TGI (NCI-H23 lung): 4.22 µM
- GI50 (SN12C renal): 2.44 µM
- TGI (SN12C renal): 7.03 µM
- GI50 (LOX IMVI melanoma): 1.74 µM
- TGI (LOX IMVI melanoma): 3.11 µM
- GI50 (MCF7 breast): 1.95 µM
- TGI (MCF7 breast): 4.34 µM
- GI50 (HCT-116 colon): 1.71 µM
- TGI (HCT-116 colon): 3.24 µM
- GI50 (CCRF-CEM leukemia): 2.23 µM
- TGI (CCRF-CEM leukemia): 5.75 µM
- GI50 (IGROV1 ovarian): 2.18 µM
- TGI (IGROV1 ovarian): 5.61 µM
- GI50 (MDA-MB-435): 1.93 µM
- TGI (MDA-MB-435): 4.01 µM
- GI50 (SK-MEL-2 melanoma): 2.06 µM
- TGI (SK-MEL-2 melanoma): 4.91 µM
- GI50 (NCI/ADR-RES ovarian): 2.35 µM
- TGI (NCI/ADR-RES ovarian): 6.35 µM
- GI50 (SK-OV-3 ovarian): 6.82 µM
- TGI (SK-OV-3 ovarian): 23.6 µM
- GI50 (HCT-15 colon): 1.79 µM
- TGI (HCT-15 colon): 3.78 µM
- GI50 (MDA-MB-231 breast): 1.98 µM
- TGI (MDA-MB-231 breast): 3.63 µM
- GI50 (CAKI-1 renal): 1.97 µM
- TGI (CAKI-1 renal): 4.73 µM
- GI50 (MDA-MB-468 breast): 1.52 µM
- TGI (MDA-MB-468 breast): 2.97 µM
- GI50 (DU-145 prostate): 3.7 µM
- TGI (DU-145 prostate): 13.3 µM
- GI50 (OVCAR-8 ovarian): 3.35 µM
- TGI (OVCAR-8 ovarian): > 100 µM
- GI50 (UACC-257 melanoma): 1.9 µM
- TGI (UACC-257 melanoma): 3.85 µM
- GI50 (T-47D breast): 2.05 µM
- TGI (T-47D breast): 4.92 µM
- GI50 (786-0 renal): 1.49 µM
- TGI (786-0 renal): 2.95 µM
- GI50 (TK-10 renal): 2.02 µM
- TGI (TK-10 renal): 7.64 µM
- GI50 (HOP-92 NSCLC): 2.06 µM
- TGI (HOP-92 NSCLC): 4.46 µM
- GI50 (RXF 393 renal): 1.9 µM
- TGI (RXF 393 renal): 4.19 µM
- GI50 (RPMI-8226 leukemia): 2.48 µM
- TGI (RPMI-8226 leukemia): 6.22 µM
- GI50 (SK-MEL-5 melanoma): 1.85 µM
- TGI (SK-MEL-5 melanoma): 3.73 µM
- GI50 (SF-539 CNS): 1.63 µM
- TGI (SF-539 CNS): 3.01 µM
- GI50 (HCC-2998 colon): 1.69 µM
- TGI (HCC-2998 colon): 3.18 µM
- GI50 (NCI-H460 lung): 2.2 µM
- TGI (NCI-H460 lung): 4.99 µM
- GI50 (SW-620 colon): 1.95 µM
- TGI (SW-620 colon): 4 µM
- GI50 (UACC-62 melanoma): 1.71 µM
- TGI (UACC-62 melanoma): 3.19 µM
- GI50 (HOP-62 NSCLC): 2.83 µM
- TGI (HOP-62 NSCLC): 13.9 µM
- GI50 (PC-3 prostate): 2.48 µM
- TGI (PC-3 prostate): 9.08 µM
- GI50 (A549 NSCLC): 2.84 µM
- TGI (A549 NSCLC): 11.1 µM
- GI50 (SR leukemia): 2.01 µM
- TGI (SR leukemia): > 100 µM
- GI50 (SNB-19 CNS): 2.38 µM
- TGI (SNB-19 CNS): 6.25 µM
- GI50 (OVCAR-4 ovarian): 2.76 µM
- TGI (OVCAR-4 ovarian): 8.16 µM
- GI50 (SNB-75 CNS): 5.15 µM
- TGI (SNB-75 CNS): 20.3 µM
- GI50 (A498 renal): 11.6 µM
- TGI (A498 renal): 26.6 µM
- GI50 (NCI-H522 lung): 1.78 µM
- TGI (NCI-H522 lung): 3.62 µM
- GI50 (SF-295 CNS): 1.71 µM
- TGI (SF-295 CNS): 3.39 µM
- GI50 (MOLT-4 leukemia): 2.32 µM
- TGI (MOLT-4 leukemia): 6.32 µM
- GI50 (HS 578T breast): 3.91 µM
- TGI (HS 578T breast): 21.7 µM
- GI50 (UO-31 renal): 1.71 µM
- TGI (UO-31 renal): 3.65 µM
- GI50 (SF-268 CNS): 2.6 µM
- TGI (SF-268 CNS): 8.08 µM
- GI50 (M14 melanoma): 1.86 µM
- TGI (M14 melanoma): 3.98 µM
- GI50 (OVCAR-3 ovarian): 2.3 µM
- TGI (OVCAR-3 ovarian): 4.68 µM
- GI50 (SK-MEL-28 melanoma): 1.7 µM
- TGI (SK-MEL-28 melanoma): 3.13 µM
- GI50 (MALME-3M melanoma): 1.75 µM
- TGI (MALME-3M melanoma): 3.18 µM
- GI50 (NCI-H226 lung): 10.7 µM
- TGI (NCI-H226 lung): 45.2 µM
- GI50 (COLO 205 colon): 2.17 µM
- TGI (COLO 205 colon): 4.33 µM
- GI50 (BT-549 breast): 17.6 µM
- TGI (BT-549 breast): 34.2 µM
- GI50 (U251 CNS): 1.97 µM
- TGI (U251 CNS): 4.09 µM
- GI50 (ACHN renal): 2.07 µM
- TGI (ACHN renal): 4.81 µM
- GI50 (KM12 colon): 2.12 µM
- TGI (KM12 colon): 4.64 µM
